For one test, the system named is Klebsiella pneumoniae. Description: Antibacterial activity against Klebsiella pneumoniae ATCC 10031 after 24 hrs by well diffusion method. Type of test: functional.
The subject of the next test is Pseudomonas aeruginosa. The experiment in a line: Antibacterial activity against Pseudomonas aeruginosa ATCC 10145 after 24 hrs by well diffusion method. Type of test: functional. A general note: Agar diffusion results depend on both activity and mobility in agar.
For another test, the system named is Streptococcus pyogenes. The experiment in a line: Antibacterial activity against Streptococcus pyogenes ATCC 12358 after 24 hrs by well diffusion method. Format: functional.
The subject of another test is Staphylococcus aureus. The experiment in a line: Antibacterial activity against Staphylococcus aureus ATCC 11632 after 24 hrs by well diffusion method. Format: functional.
The nature of test [1]: Antioxidant activity assessed as DPPH free radical scavenging activity at 100 uM by UV-Vis spectrophotometric analysis. Format: functional. A general note: DPPH is a stable violet radical that fades when it is reduced.
The nature of test [2]: Antioxidant activity assessed as H2O2 free radical scavenging activity at 100 uM by UV-Vis spectrophotometric analysis. Format: functional.
For another test, the system named is Erythrocyte. Description: Antiinflammatory activity in human RBC at 10 to 500 uM by membrane stabilization method. Type of test: functional, cell-based.
The nature of test [3]: Antioxidant activity assessed as anti-inflammatory activity by measuring decrease in bovine serum albumin denaturation at 10 to 500 uM. Format: functional.

Structures are written as SMILES. The source made the active and inactive calls. No cut-off for these calls is given here.

Turning to `O=C(/C=C/c1ccccc1)c1ccccc1` [CHALCONE], the “inhibition zone (IZ)” value with Klebsiella pneumoniae worked out at 5 mm; in the test with Pseudomonas aeruginosa, 7 mm; with Streptococcus pyogenes, 6.5 mm; with Staphylococcus aureus it was 6 mm. Besides, the IC50 – broadly, the concentration that gives 50% inhibition – in test [1] came to 70.9 µM; in test [2], 98.1 µM. Moreover, the result in the test on Erythrocyte was Active.
With `Cc1ccc(/C=C/C(=O)c2cccc(NC(=O)c3cc(-c4ccncc4)n[nH]3)c2)cc1`, the “inhibition zone (IZ)” value came out at 7.8 mm in the test with Pseudomonas aeruginosa, 7.9 mm with Streptococcus pyogenes and 5.9 mm in the test on Staphylococcus aureus. Moreover, the IC50 in test [1] stood at 69.4 µM; in test [2], 64.6 µM. Also, the outcome in the test on Erythrocyte was Active.
Regarding `NC(=O)c1cc(-c2ccncc2)n[nH]1`, the “inhibition zone (IZ)” value in the test on Klebsiella pneumoniae is on record as 5 mm; with Pseudomonas aeruginosa, 4 mm; in the test with Streptococcus pyogenes, 6 mm; in the test on Staphylococcus aureus it was 5 mm. In addition, the IC50 in test [1] came to 82.1 µM; in test [2] it was 89.1 µM. For the same molecule, the result in the test on Erythrocyte was Active.
On to `COc1ccccc1/C=C/C(=O)c1cccc(NC(=O)c2cc(-c3ccncc3)n[nH]2)c1`, for which the “inhibition zone (IZ)” value in the test on Pseudomonas aeruginosa amounted to 8.8 mm; with Streptococcus pyogenes, 9.7 mm; with Staphylococcus aureus, 6.8 mm. The results for the concentration for half-maximal inhibition (IC50) in test [1] and in test [2] were 41.7 µM and 56.7 µM, respectively. In the test with Erythrocyte, the result was Active.
As to `O=C(/C=C/c1ccc([N+](=O)[O-])cc1)c1cccc(NC(=O)c2cc(-c3ccncc3)n[nH]2)c1`, the results for the “inhibition zone (IZ)” value in the test with Pseudomonas aeruginosa, in the test on Streptococcus pyogenes and with Staphylococcus aureus were 10.4 mm, 19.3 mm and 20.2 mm, respectively. For the same molecule, the IC50 in test [1] was found to be 52.8 µM; in test [2] it was 64.6 µM. Further, in the test on Erythrocyte, the result was Active.
For `O=C(/C=C/c1ccc(F)cc1)c1cccc(NC(=O)c2cc(-c3ccncc3)n[nH]2)c1`, the “inhibition zone (IZ)” value in the test on Pseudomonas aeruginosa was determined as 12.1 mm; with Staphylococcus aureus, 5.4 mm. In addition, the IC50 in test [1] turned out to be 56 µM; in test [2], 58.7 µM. Moreover, the outcome in the test on Erythrocyte was Active.
Turning to `O=C(/C=C/c1ccccc1Cl)c1cccc(NC(=O)c2cc(-c3ccncc3)n[nH]2)c1`, the “inhibition zone (IZ)” value was found to be 8.3 mm in the test on Pseudomonas aeruginosa and 7.4 mm with Streptococcus pyogenes. Besides, the IC50 in test [1] turned out to be 27.7 µM; in test [2], 79.8 µM. Also, the outcome (in the test on Erythrocyte; in test [3]) was Active.
In the case of `COc1cc(/C=C/C(=O)c2cccc(NC(=O)c3cc(-c4ccncc4)n[nH]3)c2)cc(OC)c1OC`, the “inhibition zone (IZ)” value is on record as 5.2 mm in the test on Pseudomonas aeruginosa, 11.6 mm in the test with Streptococcus pyogenes and 12.6 mm in the test with Staphylococcus aureus. Also, the IC50 in test [1] was 54.5 µM; in test [2], 52.9 µM. The outcome (in the test on Erythrocyte; in test [3]) was Active.
`O=C(/C=C/c1ccco1)c1cccc(NC(=O)c2cc(-c3ccncc3)n[nH]2)c1`: the “inhibition zone (IZ)” value with Klebsiella pneumoniae is 5.8 mm; in the test on Pseudomonas aeruginosa, 5.7 mm; in the test on Streptococcus pyogenes it was 13.2 mm; in the test on Staphylococcus aureus, 10.7 mm. Besides, the IC50 in test [1] was found to be 41.8 µM; in test [2], 72.3 µM. In addition, the outcome (with Erythrocyte; in test [3]) was Active.
As for `COc1ccc(/C=C/C(=O)c2cccc(NC(=O)c3cc(-c4ccncc4)n[nH]3)c2)cc1`, the “inhibition zone (IZ)” value with Klebsiella pneumoniae was determined as 5.2 mm; with Pseudomonas aeruginosa, 12.5 mm; in the test on Streptococcus pyogenes, 10.6 mm; in the test with Staphylococcus aureus, 4.5 mm. Further, the IC50 in test [1] turned out to be 38.4 µM; in test [2], 54.6 µM. The result in the test with Erythrocyte was Active.
As for `CC(C)c1ccc(/C=C/C(=O)c2cccc(NC(=O)c3cc(-c4ccncc4)n[nH]3)c2)cc1`, the figures for the “inhibition zone (IZ)” value in the test with Pseudomonas aeruginosa, with Streptococcus pyogenes and in the test with Staphylococcus aureus were 9.6 mm, 9.4 mm and 6.8 mm, respectively. Besides, the figures for the IC50 in test [1] and in test [2] were 52.3 µM and 60.2 µM, respectively. Further, the result (with Erythrocyte; in test [3]) was Active.
As for `O=C(/C=C/c1ccc(Cl)cc1)c1cccc(NC(=O)c2cc(-c3ccncc3)n[nH]2)c1`, the results for the “inhibition zone (IZ)” value in the test with Pseudomonas aeruginosa, in the test with Streptococcus pyogenes and in the test with Staphylococcus aureus were 10.2 mm, 15.3 mm and 12.3 mm, respectively. Besides, the figures for the IC50 in test [1] and in test [2] were 63.9 µM and 78.9 µM, respectively. Also, the result (in the test on Erythrocyte; in test [3]) was Active.
For the molecule `O=C(/C=C/c1ccccc1)c1cccc(NC(=O)c2cc(-c3ccncc3)n[nH]2)c1`, the “inhibition zone (IZ)” value is recorded as 9.5 mm with Pseudomonas aeruginosa, 13.2 mm in the test with Streptococcus pyogenes and 7.5 mm with Staphylococcus aureus. In addition, the values for the IC50 in test [1] and in test [2] were 67.1 µM and 71.5 µM, respectively. In the test with Erythrocyte, the result was Active.
`O=C(/C=C/c1ccc(Cl)cc1Cl)c1cccc(NC(=O)c2cc(-c3ccncc3)n[nH]2)c1`: the “inhibition zone (IZ)” value in the test on Klebsiella pneumoniae turned out to be 6.8 mm; in the test with Pseudomonas aeruginosa, 12.2 mm; in the test with Streptococcus pyogenes, 15.5 mm; in the test on Staphylococcus aureus, 17.5 mm. Besides, the IC50 was determined as 35 µM in test [1] and 80.9 µM in test [2]. For the same molecule, the outcome (in the test on Erythrocyte; in test [3]) was Active.
On to `CN(C)c1ccc(/C=C/C(=O)c2cccc(NC(=O)c3cc(-c4ccncc4)n[nH]3)c2)cc1`, for which the “inhibition zone (IZ)” value in the test on Klebsiella pneumoniae came to 5.9 mm; in the test on Pseudomonas aeruginosa, 10.5 mm; with Streptococcus pyogenes, 12.4 mm; in the test with Staphylococcus aureus, 7.8 mm. Also, the IC50 was 41.9 µM in test [1] and 60.9 µM in test [2]. Also, the result (with Erythrocyte; in test [3]) was Active.
With `O=C(/C=C/c1cccs1)c1cccc(NC(=O)c2cc(-c3ccncc3)n[nH]2)c1`, the “inhibition zone (IZ)” value in the test with Klebsiella pneumoniae is 7.5 mm; in the test on Pseudomonas aeruginosa, 8.6 mm; in the test with Streptococcus pyogenes, 13.5 mm; in the test with Staphylococcus aureus, 15.4 mm. The IC50 was found to be 27.6 µM in test [1] and 70 µM in test [2]. In addition, the result (with Erythrocyte; in test [3]) was Active.
Consider `O=C(/C=C/c1cccc2ccccc12)c1cccc(NC(=O)c2cc(-c3ccncc3)n[nH]2)c1`, for which the “inhibition zone (IZ)” value with Pseudomonas aeruginosa is listed as 6.3 mm; in the test with Streptococcus pyogenes, 15.4 mm; in the test on Staphylococcus aureus it was 12.3 mm. Moreover, the IC50 in test [1] turned out to be 64.5 µM; in test [2] it was 72.1 µM. In addition, the outcome (with Erythrocyte; in test [3]) was Active.

The values are drawn from ChEMBL document CHEMBL3867479, “Multiple biological activities and molecular docking studies of newly synthesized 3-(pyridin-4-yl)-1H-pyrazole-5-carboxamide chalcone hybrids” (Bioorg Med Chem Lett, 2016).
